Structures are written as SMILES. ≈ marks a conversion by molar mass, not a printed value.

The test system of one test is P388. Put plainly: In vivo antitumor activity against mouse P388 cells at 30 ug/kg. Type of test: functional.
Settings: not given
As for `C=C(C)[C@@]12C[C@@H](C)[C@@]34OC5(O[C@@H]1[C@@H]3[C@@H]1O[C@]1(CO)[C@@H](O)[C@@]1(O)[C@H]4[C@H]([C@H](C)[C@@H]1OC(=O)c1ccccc1)[C@H](C)CCCCCC[C@H]5O)O2` [KRAUSSIANIN], the T/C (commonly the result in the treated group divided by that in the control group, in per cent) stood at 152%.

A further test relates to P388. Put plainly: Cytotoxicity against mouse P388 cells. Type of test: functional. Conditions: read-out: ED50 (the source's name).
For `C=C(C)[C@]12C[C@@H](C)[C@@]34O[C@@]5(CCCCCCC[C@H](C)[C@H]6[C@H](C)[C@H](OC(=O)c7ccccc7)[C@@](O)([C@H](O)[C@@]7(CO)O[C@H]7[C@@H]3[C@H]1O5)[C@@H]64)O2`, the EC50 came out at 2.3 ng/mL (≈ 3.6 nM).

For the compound `C=C(C)[C@]12C[C@@H](C)[C@@]34O[C@](/C=C/C=C/CCCCC)(O[C@@H]1[C@@H]3[C@@H]1O[C@]1(CO)[C@@H](O)[C@]1(O)C(=O)C(C)=C[C@H]14)O2` [EXCOECARIA TOXIN], the EC50 was determined as 0.24 ng/mL (≈ 0.454 nM).

Take `C=C(C)[C@@]12O[C@@]3(/C=C/C=C/CCCCC)O[C@@H]1[C@@H]1[C@@H]4O[C@]4(CO)[C@@H](O)[C@]4(O)C(=O)C(C)=C[C@H]4[C@@]1(O3)[C@H](C)[C@H]2OC(=O)c1ccccc1` [GNIDILATIDIN]: the EC50 is less than 1 ng/mL.

As for `C=C(C)[C@@]12O[C@@]3(CCCCCCCCC)O[C@@H]1[C@@H]1[C@@H]4O[C@]4(CO)[C@@H](O)[C@]4(O)C(=O)C(C)=C[C@H]4[C@@]1(O3)[C@H](C)[C@H]2OC(=O)c1ccccc1` [GNIDILATIN], the EC50 is less than 1 ng/mL.

`C=C(C)[C@@]12C[C@@H](C)[C@@]34OC5(O[C@@H]1[C@@H]3[C@@H]1O[C@]1(CO)[C@@H](O)[C@@]1(O)[C@H]4[C@H]([C@H](C)[C@@H]1OC(=O)c1ccccc1)[C@H](C)CCCCCC[C@H]5O)O2` [KRAUSSIANIN]: the EC50 was found to be 0.78 ng/mL (≈ 1.19 nM).

Source of the values: ChEMBL document CHEMBL1151297, “Studies of the Thymelaeaceae II. Antineoplastic principles of Gnidia kraussiana” (1984).
